Results on eleven compounds are retold here after patent US20180127374A1, “BE[…] AS OPIOID RECEPTORS MODULATORS” (Purdue Pharma L.P., priority 2012, published 2018).

As usually defined, the Emax is the size of the effect at its maximum, as opposed to the concentration needed. For orientation: EC50 means the concentration that produces a half-maximal response. The Ki is a dissociation constant, usually derived from enzyme kinetics or from competition with a known ligand.

Read-outs that look alike come from different tables or passages of the source.

Assay [1] concerns the target T1, μ-opioid receptor (Homo sapiens, UniProt P35372). As to the kind of experiment: μ-opioid receptor [35S]GTPγS functional assay. The following applies: for Emax: relative to the effect elicited by DAMGO. Format: biochemical. Also noted: purchased Perkin Elmer, Shelton, Conn. On the procedure:
[^35S]GTPγS functional assays were conducted using freshly thawed μ-receptor membranes (Perkin Elmer, Shelton, Conn.). Assay reactions were prepared by sequentially adding the following reagents to binding buffer (100 mM NaCl, 10 mM MgCl2, 20 mM HEPES, pH 7.4) on ice (final concentrations indicated): membrane protein (0.026 mg/mL), saponin ([…]), GDP ([…]) and [^35S]GTPγS (0.20 nM; Perkin Elmer, Shelton, Conn.). The prepared membrane solution (190 μl/well) was transferred to 96-shallow well polypropylene plates containing 10 μI of 20× concentrated stock solutions of the agonist [D-Ala^e, N-methyl-Phe^4 Gly-ol^5]-enkephalin (DAMGO) prepared in dimethyl sulfoxide (DMSO). Plates were incubated for 30 min at about 25° C. with shaking. […] Data were analyzed using the sigmoidal dose-response curve fitting functions in GraphPad PRISM v. 3.0, or an in-house function for non-linear, sigmoidal dose-response curve-fitting.
μ GTP EC50 is the concentration of a compound providing 50% of the maximal response for the compound at a μ-opioid receptor.
μ GTP Emax (%) is the maximal effect elicited by a compound relative to the effect elicited by DAMGO, a standard μ agonist. Generally, the μ GTP Emax (%) value measures the efficacy of a compound to treat or prevent pain or other Conditions.
Target sequence in this assay (P35372 whole entry, species assumed): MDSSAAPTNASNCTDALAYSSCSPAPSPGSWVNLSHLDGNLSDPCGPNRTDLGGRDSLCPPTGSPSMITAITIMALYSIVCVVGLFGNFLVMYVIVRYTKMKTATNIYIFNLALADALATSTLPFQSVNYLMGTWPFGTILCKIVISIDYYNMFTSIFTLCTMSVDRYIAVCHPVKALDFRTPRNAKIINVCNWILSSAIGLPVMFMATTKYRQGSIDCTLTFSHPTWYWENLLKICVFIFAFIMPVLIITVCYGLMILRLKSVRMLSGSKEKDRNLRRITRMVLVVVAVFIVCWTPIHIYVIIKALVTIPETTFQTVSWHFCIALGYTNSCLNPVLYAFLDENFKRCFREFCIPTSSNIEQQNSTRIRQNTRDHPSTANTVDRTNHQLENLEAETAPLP

In assay [2] the target is T2, κ opioid receptor (Homo sapiens, UniProt P41145). As to the kind of experiment: κ-opioid receptor radioligand dose displacement binding assay. Also noted: expressed in transfected cells; host or cells: HEK-293. As to the method: Membranes from recombinant HEK-293 cells expressing the human κ opioid receptor (κ) (cloned in house) were prepared by lysing cells in ice cold hypotonic buffer (2.5 mM MgCl2, 50 mM HEPES, pH 7.4) (10 mL/10 cm dish) followed by homogenization with a tissue grinder/Teflon pestle. Membranes were collected by centrifugation at 30,000×g for 15 min at 4° C. and pellets were resuspended in hypotonic buffer to a final concentration of 1-3 mg/mL. Protein concentrations were determined using the BioRad protein assay reagent with bovine serum albumen as standard. Aliquots of κ receptor membranes were stored at […]

For assay [3], the target named is T2, κ opioid receptor. As to the kind of experiment: κ-opioid receptor [35S]GTPγS functional assay. Format: biochemical. Also noted: expressed in transfected cells. The settings on record: for Emax: relative to the effect elicited by U69,593. On the procedure: Functional [^35S]GTPγS binding assays were conducted as follows. κ opioid receptor membrane solution was prepared by sequentially adding final concentrations of 0.026 μg/μl κ membrane protein (in-house), 10 μg/mL saponin, 3 μM GDP and 0.20 nM [^35S]GTPγS to binding buffer (100 mM NaCl, 10 mM MgCl2, 20 mM HEPES, pH 7.4) on ice. The prepared membrane solution (190 μl/well) was transferred to 96-shallow well polypropylene plates containing 10 μl of 20× concentrated stock solutions of agonist prepared in DMSO. Plates were incubated for 30 min at a temperature of about 25° C. with shaking.
κ GTP EC50 is the concentration of a compound providing 50% of the maximal response for the compound at a κ receptor.
κ GTP Emax (%) is the maximal effect elicited by a compound relative to the effect elicited by U69,593.
In general terms: GTPγS is a poorly hydrolysed GTP analogue; its binding reports G protein activation.

The target of assay [4] is T1, μ-opioid receptor. As to the kind of experiment: μ-opioid receptor radioligand dose-displacement binding assay. As to the method: Radioligand dose-displacement binding assays for μ-opioid receptors used 0.3 nM [^3H]-diprenorphine (Perkin Elmer, Shelton, Conn.), with […] membrane protein/well in a final volume of […] binding buffer (10 mM MgCl2, 1 mM EDTA, 5% DMSO, 50 mM HEPES, pH 7.4). Reactions were carried out in the absence or presence of increasing concentrations of unlabeled naloxone. All reactions were conducted in 96-deep well polypropylene plates for 2 hr at room temperature. […] The data were analyzed using the one-site competition curve fitting functions in GraphPad PRISM™ v. 3.0 or higher (San Diego, Calif.), or an in-house function for one-site competition curve-fitting.
Target sequence in this assay (P35372 whole entry): as the sequence (P35372 whole entry, species assumed) above

The target in another assay is δ opioid receptor (Homo sapiens, UniProt P41143). As to the kind of experiment: δ-opioid receptor radioligand dose-displacement binding assay.
Setting [5] is: μ-receptor membranes, read-out: GTPγS μ EC50.
[6] abbreviates: [3H]-U69,593 displacement, HEK-293 membranes, read-out: Ki (nM) Opioid Receptor κ.
Setting [7] is: κ membrane protein (in-house), read-out: GTPγS κ EC50.
The mark [8] stands for this setting: [3H]-diprenorphine displacement, read-out: Ki (nM) Opioid Receptor μ.
The mark [9] stands for this setting: μ-receptor membranes, μM, read-out: GTPγS μ EC50.

T2 sequence (P41145 whole entry): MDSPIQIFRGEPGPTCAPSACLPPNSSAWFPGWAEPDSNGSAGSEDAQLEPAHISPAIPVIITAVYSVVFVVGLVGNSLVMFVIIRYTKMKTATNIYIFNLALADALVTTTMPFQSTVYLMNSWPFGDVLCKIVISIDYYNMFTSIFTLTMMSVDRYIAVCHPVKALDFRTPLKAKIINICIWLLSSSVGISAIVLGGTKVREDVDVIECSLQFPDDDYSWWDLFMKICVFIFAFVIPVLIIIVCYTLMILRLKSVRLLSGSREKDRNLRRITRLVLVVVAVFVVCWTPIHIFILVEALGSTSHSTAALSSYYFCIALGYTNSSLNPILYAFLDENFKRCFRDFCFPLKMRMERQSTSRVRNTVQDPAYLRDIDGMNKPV
Sequence of δ opioid receptor (P41143 whole entry): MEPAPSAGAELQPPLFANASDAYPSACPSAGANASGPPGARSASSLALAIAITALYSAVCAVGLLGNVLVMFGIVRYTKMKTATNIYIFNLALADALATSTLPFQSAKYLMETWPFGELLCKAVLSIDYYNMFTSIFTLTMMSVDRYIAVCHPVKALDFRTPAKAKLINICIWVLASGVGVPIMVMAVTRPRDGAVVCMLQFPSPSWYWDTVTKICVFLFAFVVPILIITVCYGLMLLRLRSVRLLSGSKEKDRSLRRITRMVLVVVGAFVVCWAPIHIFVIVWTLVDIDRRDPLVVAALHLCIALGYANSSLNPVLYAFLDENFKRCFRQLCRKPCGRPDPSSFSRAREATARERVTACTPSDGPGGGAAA
Method for δ opioid receptor: δ-opioid Receptor Binding Assay Procedures were conducted as follows. Radioligand dose-displacement assays used 0.3 nM [^3H]-Naltrindole (Perkin Elmer, Shelton, Conn.; 33.0 Ci/mmole) with 5 μg membrane protein (Perkin Elmer, Shelton, Conn.) in a final volume of 500 μl binding buffer (5 mM MgCl2, 5% DMSO, 50 mM Trizma base, pH 7.4). Non-specific binding was determined in the presence of 25 μM unlabeled naloxone. All reactions were performed in 96-deep well polypropylene plates for 1 hr at a temperature of about 25° C. Binding reactions were terminated by rapid filtration onto 96-well Unifilter GF/C filter plates (Perkin Elmer, Shelton, Conn.) presoaked in 0.5% polyethylenimine (Sigma). Harvesting was performed using a 96-well tissue harvester (Perkin Elmer, Shelton, Conn.) followed by five filtration washes with 500 μl ice-cold binding buffer. Filter plates were subsequently dried at 50° C. for 1-2 hours. Fifty μl/well scintillation cocktail (Perkin Elmer, Shelton, Conn.) was added and plates were counted in a Packard Top-Count for 1 min/well.

As to `COC(=O)/C=C/C[C@@]12CCN(CC3CC3)C(Cc3ccc(OC)cc31)[C@@H]2C` [Compound 8, (E)-methyl 4-((6S,11R)-3-(cyclopropylmethyl)-8-methoxy-11-methyl-1,2,3,4,5,6-hexahydro-2,6-methanobenzo[d]azocin-6-yl)but-2-enoate], the Emax worked out at 46.3% at μ-opioid receptor [1] and 99.3% on κ opioid receptor [3]. In addition, the EC50 amounted to 0.562 µM on μ-opioid receptor [1] (setting [5]) and 123 nM on κ opioid receptor [3] (setting [7]). Moreover, the inhibitory constant (Ki) on κ opioid receptor [2] (setting [6]) came to 3.21 ± 0.76 nM; at μ-opioid receptor [4] (setting [8]), 1810 ± 553 nM.

Take `COc1ccc2c(c1)[C@@]1(CCCCO)CCN(CC3CC3)C(C2)[C@@H]1C` [Compound 13, 4-((6S,11R)-3-(cyclopropylmethyl)-8-methoxy-11-methyl-1,2,3,4,5,6-hexahydro-2,6-methanobenzo[d]azocin-6-yl)butan-1-ol]: the Ki was found to be 16200 ± 3050 nM at δ opioid receptor, 7.15 ± 0.86 nM on κ opioid receptor [2] and 3420 ± 763 nM on μ-opioid receptor [4]. At κ opioid receptor [3], this compound registered a concentration for a half-maximal effect (EC50) of 296 nM. Also, at κ opioid receptor [3], the Emax is 71.3%.

For `C[C@H]1[C@H]2Cc3ccc(O)cc3[C@]1(CCCC(N)=O)CCN2CC1CC1` [Compound 20, 4-((2R,6R,11R)-3-(cyclopropylmethyl)-8-hydroxy-11-methyl-1,2,3,4,5,6-hexahydro-2,6-methanobenzo[d]azocin-6-yl)butanamide], the values for the Emax at μ-opioid receptor [1] and at κ opioid receptor [3] were 19% and 58.2%, respectively. Besides, the EC50 on μ-opioid receptor [1] (setting [5]) came to 0.00318 µM; on κ opioid receptor [3] (setting [7]), 6 nM. In addition, the Ki at κ opioid receptor [2] (setting [6]) amounted to 0.08 ± 0.01 nM; on μ-opioid receptor [4] (setting [8]), 5.38 ± 0.43 nM.

As for `COc1ccc2c(c1)[C@@]1(CCCCNCC(C)C)CCN(CC3CC3)C(C2)[C@@H]1C` [Compound 9, 4-((6S,11R)-3-(cyclopropylmethyl)-8-methoxy-11-methyl-1,2,3,4,5,6-hexahydro-2,6-methanobenzo[d]azocin-6-yl)-N-isobutylbutan-1-amine], the Emax at μ-opioid receptor [1] turned out to be 60%; on κ opioid receptor [3], 103%. The values for the concentration giving a half-maximal response (EC50) on μ-opioid receptor [1] (setting [5]) and on κ opioid receptor [3] (setting [7]) were 0.643 µM and 58.1 nM, respectively. Further, the Ki at κ opioid receptor [2] (setting [6]) worked out at 1.35 ± 0.57 nM; on μ-opioid receptor [4] (setting [8]), 448 ± 113 nM.

In the case of `COc1ccc2c(c1)[C@@]1(C[C@H](O)CO)CCN(CC3CC3)C(C2)[C@@H]1C` [Compound 6, (2S)-3-((6R,11R)-3-(cyclopropylmethyl)-8-methoxy-11-methyl-1,2,3,4,5,6-hexahydro-2,6-methanobenzo[d]azocin-6-yl)propane-1,2-diol], the values for the concentration giving a half-maximal response (EC50) at μ-opioid receptor [1] and at κ opioid receptor [3] were greater than 20 µM and 3090 nM, respectively. In addition, the Ki on κ opioid receptor [2] turned out to be 46.4 ± 9.7 nM; at μ-opioid receptor [4], 3340 ± 895 nM. Also, the maximal effect (Emax) on κ opioid receptor [3] is 69.3%.

`COc1ccc2c(c1)[C@@]1(CCCC(=O)N[C@@H](C)C(N)=O)CCN(CC3CC3)C(C2)[C@@H]1C` [Compound 14, N—((S)-1-amino-1-oxopropan-2-yl)-4-((6S,11R)-3-(cyclopropylmethyl)-8-methoxy-11-methyl-1,2,3,4,5,6-hexahydro-2,6-methanobenzo[d]azocin-6-yl)butanamide]: the Emax on μ-opioid receptor [1] amounted to 64%; at κ opioid receptor [3], 63%. Besides, the EC50 on μ-opioid receptor [1] (setting [5]) was determined as 1.3 µM; at κ opioid receptor [3] (setting [7]), 1050 nM. The Ki on κ opioid receptor [2] (setting [6]) was 44 ± 17.7 nM; at μ-opioid receptor [4] (setting [8]), 4270 ± 1360 nM.

For `C[C@H]1C2Cc3ccc(O)cc3[C@@]1(CCCC(N)=O)CCN2CC1CC1` [Compound 2, 4-((6S,11R)-3-(cyclopropylmethyl)-8-hydroxy-11-methyl-1,2,3,4,5,6-hexahydro-2,6-methanobenzo[d]azocin-6-yl)butanamide], the concentration for a half-maximal effect (EC50) is greater than 20 µM at μ-opioid receptor [1] (setting [9]) and 8.98 nM on κ opioid receptor [3] (setting [7]). Further, the inhibitory constant (Ki) stood at 0.49 ± 0.11 nM at κ opioid receptor [2] (setting [6]) and 10.7 ± 1.82 nM on μ-opioid receptor [4] (setting [8]). Further, the maximal response (Emax) on κ opioid receptor [3] came to 67.3%.

On to `COc1ccc2c(c1)[C@@]1(CCCC(=O)O)CCN(CC3CC3)C(C2)[C@@H]1C` [Compound 3, 4-((6S,11R)-3-(cyclopropylmethyl)-8-methoxy-11-methyl-1,2,3,4,5,6-hexahydro-2,6-methanobenzo[d]azocin-6-yl)butanoic acid], for which the EC50 on μ-opioid receptor [1] (setting [9]) is greater than 20 µM; at κ opioid receptor [3] (setting [7]) it was 3470 nM. For the same compound, the figures for the inhibition constant Ki at κ opioid receptor [2] (setting [6]) and at μ-opioid receptor [4] (setting [8]) were 137 ± 41.9 nM and 1110 ± 32.6 nM, respectively. On κ opioid receptor [3], this compound gave an Emax of 80.7%.

As to `C[C@H]1C2Cc3ccc(O)cc3[C@@]1(CCCC(=O)O)CCN2CC1CC1` [Compound 4, 4-((6S,11R)-3-(cyclopropylmethyl)-8-hydroxy-11-methyl-1,2,3,4,5,6-hexahydro-2,6-methanobenzo[d]azocin-6-yl)butanoic acid], the EC50 is greater than 20 µM on μ-opioid receptor [1] (setting [9]) and 24.8 nM on κ opioid receptor [3] (setting [7]). Also, the inhibitory constant (Ki) stood at 2.52 ± 0.23 nM at κ opioid receptor [2] (setting [6]) and 7.61 ± 2.44 nM at μ-opioid receptor [4] (setting [8]). In addition, the maximal effect (Emax) on κ opioid receptor [3] was determined as 67.3%.

As to `C[C@H](NC(=O)CCC[C@]12CCN(CC3CC3)[C@H](Cc3ccc(O)cc31)[C@@H]2C)C(N)=O` [Compound 22, N—((S)-1-amino-1-oxopropan-2-yl)-4-((2R,6R,11R)-3-(cyclopropylmethyl)-8-hydroxy-11-methyl-1,2,3,4,5,6-hexahydro-2,6-methanobenzo[d]azocin-6-yl)butanamide], the maximal response (Emax) is 22.3% at μ-opioid receptor [1] and 53.3% at κ opioid receptor [3]. The EC50 on μ-opioid receptor [1] (setting [5]) stood at 0.0007 µM; on κ opioid receptor [3] (setting [7]) it was 13.2 nM. Also, the inhibitory constant (Ki) on κ opioid receptor [2] (setting [6]) came out at 0.41 ± 0.08 nM; at μ-opioid receptor [4] (setting [8]), 6.33 ± 1.54 nM.

On to `CC(C)N1CC[C@@]2(CCCC(N)=O)c3cc(O)ccc3C[C@@H]1[C@@H]2C` [Compound 17, 4-((2R,6R,11R)-8-hydroxy-3-isopropyl-11-methyl-1,2,3,4,5,6-hexahydro-2,6-methanobenzo[d]azocin-6-yl)butanamide], for which the Emax is 38% at μ-opioid receptor [1] and 60.7% on κ opioid receptor [3]. The EC50 on μ-opioid receptor [1] (setting [5]) worked out at 0.0682 µM; on κ opioid receptor [3] (setting [7]) it was 107 nM. The Ki was determined as 5 ± 0.53 nM on κ opioid receptor [2] (setting [6]) and 165 ± 6.97 nM at μ-opioid receptor [4] (setting [8]).
